Source: ChEMBL document CHEMBL6121063, “Identification of a Potent and Selective CDK9 Degrader as a Targeted Therapeutic Option for the Treatment of Small-Cell Lung Cancer” (J Med Chem, 2025)
≈ marks a conversion by molar mass, not a printed value.

Assays:
[1] = molecular target: Cyclin-dependent kinase 1 (Homo sapiens, UniProt P06493)
[2] = molecular target: Cyclin-dependent kinase 5 (Homo sapiens, UniProt Q00535)
[3] = molecular target: Cyclin-dependent kinase 3 (Homo sapiens, UniProt Q00526); experiment: Inhibition of CDK3 (unknown origin)
[4] = molecular target: Cyclin-dependent kinase 2 (Homo sapiens, UniProt P24941); experiment: Inhibition of CDK2 (unknown origin)
[5] = molecular target: Cyclin-dependent kinase 4 (Homo sapiens, UniProt P11802); experiment: Inhibition of CDK4 (unknown origin)
[6] = Kinetic solubility of compound in FeSSIF buffer incubated for 2 hrs by LC-MS/MS analysis; assay type: physicochemical; conditions: read-out: Kinetic_solubility
[7] = Metabolic stability in mouse liver microsomes assessed as parent compound remaining measured after 60 mins; assay type: ADME, Microsome; conditions: read-out: Stability
[8] = AUC (0 to 24 hrs) in mouse at 5 mg/kg, iv; assay type: ADME, organism-based; conditions: in vivo
[9] = Cytotoxicity against human BEAS-2B cells assessed as inhibition of cell growth incubated for 72 hrs by CCK8 assay; assay type: toxicity, cell-based
[10] = Half-life in mouse at 5 mg/kg, iv; assay type: ADME, organism-based; conditions: in vivo
NCI-H446 [11] = experiment: Antitumor activity against human NCI-H446 cells xenografted in female NU-NU mouse model assessed as tumor growth inhibition at 12.5 mg/kg, po administered once daily for 15 days relative to control; assay type: functional; conditions: NCI-H446, 360 h, time 15 day, read-out: TGI
[12] = AUC (0 to infinity) in mouse at 5 mg/kg, iv; assay type: ADME, organism-based; conditions: in vivo
[13] = molecular target: Voltage-gated inwardly rectifying potassium channel KCNH2 (Homo sapiens, UniProt Q12809); experiment: Inhibition of human ERG expressed in HEK293 cells by manual-patch clamp assay; assay type: toxicity, cell-based
[14] = Toxicity in mouse assessed as pathological changes in liver at 12.5 to 25 mg/kg, po administered daily for 14 days by H and E staining based analysis; assay type: organism-based; conditions: in vivo, 336 h, dose 12.5-25 mg/kg, time 14 day
[15] = Cmax in mouse at 5 mg/kg, iv; assay type: ADME, organism-based; conditions: in vivo
[16] = AUC (0 to infinity) in Sprague-Dawley rat at 25 mg/kg, po measured after 12 hrs by LC-MS/MS analysis; assay type: ADME, organism-based; conditions: in vivo
[17] = AUC (0 to 24 hrs) in Sprague-Dawley rat at 5 mg/kg, iv measured after 12 hrs by LC-MS/MS analysis; assay type: ADME, organism-based; conditions: in vivo
[18] = AUC (0 to infinity) in mouse at 25 mg/kg, po; assay type: ADME, organism-based; conditions: in vivo
[19] = Toxicity in mouse assessed as pathological changes in kidney at 12.5 to 25 mg/kg, po administered daily for 14 days by H and E staining based analysis; assay type: organism-based; conditions: in vivo, 336 h, dose 12.5-25 mg/kg, time 14 day
[20] = Cytotoxicity against HEK293T cells assessed as inhibition of cell growth incubated for 72 hrs by CCK8 assay; assay type: toxicity, cell-based, HEK-293T; conditions: human
[21] = Apparent permeability across apical to basolateral side in human Caco-2 cells at 2 uM measured after 60 mins by HPLC analysis; assay type: ADME, cell-based
[22] = Toxicity in mouse assessed as pathological changes in spleen at 12.5 to 25 mg/kg, po administered daily for 14 days by H and E staining based analysis; assay type: organism-based; conditions: in vivo, 336 h, dose 12.5-25 mg/kg, time 14 day
NCI-H146 = experiment: Antiproliferative activity against human NCI-H146 cells assessed as inhibition of cell growth incubated for 72 hrs by CCK8 assay; assay type: functional, cell-based; conditions: NCI-H146, 72 h
[23] = AUC (0 to 24 hrs) in Sprague-Dawley rat at 25 mg/kg, po measured after 12 hrs by LC-MS/MS analysis; assay type: ADME, organism-based; conditions: in vivo
[24] = Oral bioavailability in mouse at 25 mg/kg; assay type: ADME, organism-based; conditions: in vivo
[25] = Cytotoxicity against human L02 cells assessed as inhibition of cell growth incubated for 72 hrs by CCK8 assay; assay type: toxicity, cell-based
[26] = Cytotoxicity against human MCF-10A cells assessed as inhibition of cell growth incubated for 72 hrs by CCK8 assay; assay type: toxicity, cell-based
[27] = Half-life in mouse at 25 mg/kg, po; assay type: ADME, organism-based; conditions: in vivo
[28] = Oral bioavailability in Sprague-Dawley rat at 25 mg/kg measured after 12 hrs by LC-MS/MS analysis; assay type: ADME, organism-based; conditions: in vivo
NCI-H69 = experiment: Antiproliferative activity against human NCI-H69 cells assessed as inhibition of cell growth incubated for 72 hrs by CCK8 assay; assay type: functional, cell-based; conditions: NCI-H69, 72 h
[29] = Metabolic stability in mouse liver microsomes assessed as intrinsic clearance; assay type: ADME, Microsome; conditions: liver microsomes, read-out: CLH
Mus musculus [30] = experiment: Toxicity in female NU/NU mouse model xenografted with human NCI-H446 cells assessed as effect on body weight at 12.5 to 25 mg/kg, po administered once daily for 15 days; assay type: organism-based; conditions: in vivo, 360 h, dose 12.5-25 mg/kg, time 15 day
NCI-H446 [31] = experiment: Antiproliferative activity against human NCI-H446 cells assessed as inhibition of cell growth incubated for 72 hrs by CCK8 assay; assay type: functional, cell-based; conditions: NCI-H446, 72 h
[32] = Metabolic stability in human liver microsomes assessed as intrinsic clearance; assay type: ADME, Microsome; conditions: liver microsomes, read-out: CLH
[33] = Cmax in Sprague-Dawley rat at 25 mg/kg, po measured after 12 hrs by LC-MS/MS analysis; assay type: ADME, organism-based; conditions: in vivo
Mus musculus [34] = experiment: Hematotoxicity in mouse assessed as effect on platelet count at 12.5 to 25 mg/kg, po administered daily for 14 days; assay type: toxicity, organism-based; conditions: in vivo, 336 h, dose 12.5-25 mg/kg, time 14 day
[35] = Apparent permeability across basolateral to apical side in human Caco-2 cells at 2 uM measured after 60 mins by HPLC analysis; assay type: ADME, cell-based
DMS-114 = experiment: Antiproliferative activity against human DMS-114 cells assessed as inhibition of cell growth incubated for 72 hrs by CCK8 assay; assay type: functional, cell-based; conditions: DMS-114, 72 h
[36] = Toxicity in mouse assessed as pathological changes in heart at 12.5 to 25 mg/kg, po administered daily for 14 days by H and E staining based analysis; assay type: organism-based; conditions: in vivo, 336 h, dose 12.5-25 mg/kg, time 14 day
[37] = Toxicity in mouse assessed as pathological changes in lung at 12.5 to 25 mg/kg, po administered daily for 14 days by H and E staining based analysis; assay type: organism-based; conditions: in vivo, 336 h, dose 12.5-25 mg/kg, time 14 day
[38] = AUC (0 to 24 hrs) in mouse at 25 mg/kg, po; assay type: ADME, organism-based; conditions: in vivo
NCI-H524 = experiment: Antiproliferative activity against human NCI-H524 cells assessed as inhibition of cell growth incubated for 72 hrs by CCK8 assay; assay type: functional, cell-based; conditions: NCI-H524, 72 h
[39] = molecular target: Protein cereblon/Cyclin-dependent kinase 9 (Homo sapiens, UniProt P50750+Q96SW2); experiment: PROTAC activity at CRBN/CDK9 in human NCI-H69 cells assessed as induction of CDK9 degradation incubated for 8 hrs by Western blot analysis; assay type: cell-based
[40] = Metabolic stability in mouse liver microsomes assessed as half-life; assay type: ADME, Microsome; conditions: liver microsomes
[41] = Efflux ratio of apparent permeability across basolateral to apical over apical to basolateral side in human Caco-2 cells at 2 uM measured after 60 mins by HPLC analysis; assay type: ADME, cell-based
[42] = Cmax in Sprague-Dawley rat at 5 mg/kg, iv measured after 12 hrs by LC-MS/MS analysis; assay type: ADME, organism-based; conditions: in vivo
[43] = AUC (0 to infinity) in Sprague-Dawley rat at 5 mg/kg, iv measured after 12 hrs by LC-MS/MS analysis; assay type: ADME, organism-based; conditions: in vivo
[44] = Half-life in Sprague-Dawley rat at 5 mg/kg, iv measured after 12 hrs by LC-MS/MS analysis; assay type: ADME, organism-based; conditions: in vivo
[45] = Half-life in Sprague-Dawley rat at 25 mg/kg, po measured after 12 hrs by LC-MS/MS analysis; assay type: ADME, organism-based; conditions: in vivo
NCI-H446 [46] = experiment: Antitumor activity against human NCI-H446 cells xenografted in female NU-NU mouse model assessed as tumor growth inhibition at 25 mg/kg, po administered once daily for 15 days relative to control; assay type: functional; conditions: NCI-H446, 360 h, time 15 day, read-out: TGI
[47] = Cmax in mouse at 25 mg/kg, po; assay type: ADME, organism-based; conditions: in vivo
[48] = Metabolic stability in human liver microsomes assessed as parent compound remaining measured after 60 mins; assay type: ADME, Microsome; conditions: read-out: Stability
Mus musculus [49] = experiment: Toxicity in female NU/NU mouse model xenografted with human NCI-H446 cells expressing luciferase-GFP assessed as effect on body weight at 12.5 to 25 mg/kg, po administered for 19 days; assay type: organism-based; conditions: in vivo, 456 h, dose 12.5-25 mg/kg, time 19 day
[50] = Metabolic stability in human liver microsomes assessed as half-life; assay type: ADME, Microsome; conditions: liver microsomes
Mus musculus [51] = experiment: Hematotoxicity in mouse assessed as effect on WBC count at 12.5 to 25 mg/kg, po administered daily for 14 days; assay type: toxicity, organism-based; conditions: in vivo, 336 h, dose 12.5-25 mg/kg, time 14 day

Chain of Voltage-gated inwardly rectifying potassium channel KCNH2 (Q12809 whole entry): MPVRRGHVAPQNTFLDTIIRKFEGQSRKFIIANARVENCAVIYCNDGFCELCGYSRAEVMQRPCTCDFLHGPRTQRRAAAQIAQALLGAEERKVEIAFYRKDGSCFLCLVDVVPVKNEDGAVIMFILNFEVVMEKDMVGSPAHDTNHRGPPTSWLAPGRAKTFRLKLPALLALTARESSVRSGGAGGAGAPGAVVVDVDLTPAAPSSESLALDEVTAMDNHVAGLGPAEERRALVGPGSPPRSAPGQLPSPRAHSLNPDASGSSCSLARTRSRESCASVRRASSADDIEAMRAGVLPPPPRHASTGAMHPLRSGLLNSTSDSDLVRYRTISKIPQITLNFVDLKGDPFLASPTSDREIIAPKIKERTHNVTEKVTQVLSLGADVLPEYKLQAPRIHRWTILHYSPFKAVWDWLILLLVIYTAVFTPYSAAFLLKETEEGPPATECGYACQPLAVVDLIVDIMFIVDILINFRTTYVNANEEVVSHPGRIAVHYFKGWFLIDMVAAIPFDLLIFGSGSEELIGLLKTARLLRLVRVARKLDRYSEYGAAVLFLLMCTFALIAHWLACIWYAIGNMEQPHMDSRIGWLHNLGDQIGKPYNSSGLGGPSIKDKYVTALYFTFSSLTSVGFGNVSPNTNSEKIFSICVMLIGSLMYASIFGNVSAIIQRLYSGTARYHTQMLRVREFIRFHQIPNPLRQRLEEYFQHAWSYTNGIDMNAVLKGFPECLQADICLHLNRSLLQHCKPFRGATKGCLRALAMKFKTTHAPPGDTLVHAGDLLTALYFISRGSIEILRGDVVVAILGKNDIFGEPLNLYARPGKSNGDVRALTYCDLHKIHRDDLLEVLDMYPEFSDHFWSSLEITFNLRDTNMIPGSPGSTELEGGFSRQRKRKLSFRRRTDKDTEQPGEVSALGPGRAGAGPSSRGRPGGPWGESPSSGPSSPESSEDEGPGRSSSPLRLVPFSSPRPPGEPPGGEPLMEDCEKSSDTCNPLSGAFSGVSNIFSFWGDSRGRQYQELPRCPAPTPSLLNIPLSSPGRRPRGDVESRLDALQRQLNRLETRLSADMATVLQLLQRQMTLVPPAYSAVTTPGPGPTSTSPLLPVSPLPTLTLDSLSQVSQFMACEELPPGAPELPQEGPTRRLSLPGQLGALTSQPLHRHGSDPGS
Chain of Cyclin-dependent kinase 4 (P11802 whole entry): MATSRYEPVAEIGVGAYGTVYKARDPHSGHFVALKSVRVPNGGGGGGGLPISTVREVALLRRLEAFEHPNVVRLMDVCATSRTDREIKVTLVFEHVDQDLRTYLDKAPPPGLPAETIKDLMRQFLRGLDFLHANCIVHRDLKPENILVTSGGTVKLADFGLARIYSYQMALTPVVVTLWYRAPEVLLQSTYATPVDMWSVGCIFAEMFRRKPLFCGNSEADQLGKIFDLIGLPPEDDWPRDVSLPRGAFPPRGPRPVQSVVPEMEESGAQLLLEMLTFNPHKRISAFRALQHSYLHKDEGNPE
Chain of Cyclin-dependent kinase 5 (Q00535 whole entry): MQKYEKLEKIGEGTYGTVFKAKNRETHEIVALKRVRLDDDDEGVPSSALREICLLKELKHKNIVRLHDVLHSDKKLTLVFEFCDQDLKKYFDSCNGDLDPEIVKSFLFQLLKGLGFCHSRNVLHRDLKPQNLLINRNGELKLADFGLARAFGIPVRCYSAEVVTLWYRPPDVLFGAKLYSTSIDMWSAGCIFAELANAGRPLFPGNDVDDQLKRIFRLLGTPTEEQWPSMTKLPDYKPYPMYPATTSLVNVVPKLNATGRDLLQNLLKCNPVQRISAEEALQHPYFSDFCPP
Chain of Cyclin-dependent kinase 1 (P06493 whole entry): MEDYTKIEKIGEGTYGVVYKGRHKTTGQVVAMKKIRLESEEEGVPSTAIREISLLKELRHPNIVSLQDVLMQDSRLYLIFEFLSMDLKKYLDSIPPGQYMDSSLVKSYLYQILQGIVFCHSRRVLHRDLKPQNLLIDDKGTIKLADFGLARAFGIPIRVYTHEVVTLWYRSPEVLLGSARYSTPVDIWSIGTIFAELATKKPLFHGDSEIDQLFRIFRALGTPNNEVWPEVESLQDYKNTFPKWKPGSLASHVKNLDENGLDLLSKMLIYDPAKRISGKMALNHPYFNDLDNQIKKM
Chain of Cyclin-dependent kinase 3 (Q00526 whole entry): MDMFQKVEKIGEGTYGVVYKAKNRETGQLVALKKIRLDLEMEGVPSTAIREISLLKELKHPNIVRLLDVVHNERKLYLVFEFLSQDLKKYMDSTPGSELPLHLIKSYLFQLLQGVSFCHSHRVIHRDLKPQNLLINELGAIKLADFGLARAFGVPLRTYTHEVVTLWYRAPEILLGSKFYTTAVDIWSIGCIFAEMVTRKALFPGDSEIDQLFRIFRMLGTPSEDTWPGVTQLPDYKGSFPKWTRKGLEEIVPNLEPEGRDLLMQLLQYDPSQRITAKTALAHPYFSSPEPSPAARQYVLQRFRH
Chain of Protein cereblon/Cyclin-dependent kinase 9 (P50750 whole entry): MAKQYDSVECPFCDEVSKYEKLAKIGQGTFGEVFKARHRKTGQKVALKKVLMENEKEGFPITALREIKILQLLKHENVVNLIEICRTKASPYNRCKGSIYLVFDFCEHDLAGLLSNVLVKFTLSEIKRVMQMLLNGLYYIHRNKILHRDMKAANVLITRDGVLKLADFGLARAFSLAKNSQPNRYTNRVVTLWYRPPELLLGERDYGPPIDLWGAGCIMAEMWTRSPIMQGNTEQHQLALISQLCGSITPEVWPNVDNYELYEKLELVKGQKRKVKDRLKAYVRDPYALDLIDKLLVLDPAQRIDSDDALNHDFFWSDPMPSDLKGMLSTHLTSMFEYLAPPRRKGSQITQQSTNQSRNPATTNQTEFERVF
Chain of Protein cereblon/Cyclin-dependent kinase 9 (Q96SW2 whole entry): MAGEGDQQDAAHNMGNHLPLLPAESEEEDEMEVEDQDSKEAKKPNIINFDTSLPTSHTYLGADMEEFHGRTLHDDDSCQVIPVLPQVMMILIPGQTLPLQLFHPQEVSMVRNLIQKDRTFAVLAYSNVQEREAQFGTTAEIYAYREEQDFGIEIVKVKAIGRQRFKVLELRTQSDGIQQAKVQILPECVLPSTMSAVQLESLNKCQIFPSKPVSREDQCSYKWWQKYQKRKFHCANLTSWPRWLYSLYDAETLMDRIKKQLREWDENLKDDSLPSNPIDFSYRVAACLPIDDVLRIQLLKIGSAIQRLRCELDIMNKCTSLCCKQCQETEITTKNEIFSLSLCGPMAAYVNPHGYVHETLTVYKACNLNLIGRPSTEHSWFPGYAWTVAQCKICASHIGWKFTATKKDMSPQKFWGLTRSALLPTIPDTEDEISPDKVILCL

## COCCN1CCN(Cc2ccc(-c3n[nH]c4c3C(=O)c3c(NC(=O)NN5CCOCC5)cccc3-4)cc2)CC1 [RGB-286638]
[1]
  IC50: < 5 nM
[2]
  IC50: < 5 nM
[3]
  IC50: < 5 nM
[4]
  IC50: < 5 nM
[5]
  IC50: < 5 nM

## O=C1CCC(Nc2cccc(N3CCN(CC4CCN(CC(=O)N5CCC(NC(=O)c6n[nH]cc6NC(=O)c6c(Cl)cccc6Cl)CC5)CC4)CC3)c2)C(=O)N1 (stereo not given)
[6]
  solubility kinetic at 2 h: 234 µM (≈ 189 µg/mL)
[7]
  remaining at 1 h: 82.8%
[8]
  AUC(0-t): 2.66 µg·h/mL
[9]
  IC50 at 72 h: 413 nM
[10]
  half-life: 8.2 h
NCI-H446 [11]
  inhibition in vivo at 12.5 mg/kg: 79.2%
[12]
  AUC(0-inf): 2.86 µg·h/mL
[13]
  IC50: > 30000 nM
[14]
  Activity: Minimal_effect
[15]
  Cmax: 2.6 µg/mL
[16]
  AUC(0-inf): 0.893 µg·h/mL
[17]
  AUC(0-t) at 12 h: 2.18 µg·h/mL
[18]
  AUC(0-inf): 0.971 µg·h/mL
[19]
  Activity: Minimal_effect
[20]
  IC50 at 72 h: 95 nM
[21]
  Papp A→B at 1 h, 2 µM: 18.1 nm/s
[22]
  Activity: Minimal_effect
NCI-H146
  IC50: 0.53 nM
[23]
  AUC(0-t) at 12 h: 0.714 µg·h/mL
[24]
  bioavailability: 6.8%
[25]
  IC50 at 72 h: 70 nM
[26]
  IC50 at 72 h: 126 nM
[27]
  half-life: 4.7 h
[28]
  bioavailability: 6.5%
NCI-H69
  IC50: 1.03 nM
[29]
  microsomal CLint: 9.4 µL/min/mg
Mus musculus [30]
  Activity: Non-toxic
NCI-H446 [31]
  IC50: 1.01 nM
[32]
  microsomal CLint: 11 µL/min/mg
[33]
  Cmax: 0.179 µg/mL
Mus musculus [34]
  Activity: Non-toxic
[35]
  Papp B→A at 1 h, 2 µM: 94.7 nm/s
DMS-114
  IC50: 0.53 nM
[36]
  Activity: Minimal_effect
[37]
  Activity: Minimal_effect
[38]
  AUC(0-t): 0.951 µg·h/mL
NCI-H524
  IC50: 0.53 nM
[39]
  DC50: 1.09 nM
[40]
  half-life: 2.42 h
[41]
  efflux ratio at 1 h, 2 µM: 5.2
[42]
  Cmax: 2 µg/mL
[43]
  AUC(0-inf): 2.33 µg·h/mL
[44]
  half-life: 2.8 h
[45]
  half-life: 5.4 h
NCI-H446 [46]
  inhibition in vivo at 25 mg/kg: 84.8%
[47]
  Cmax: 0.277 µg/mL
[48]
  remaining at 1 h: 76.2%
Mus musculus [49]
  Activity: Non-toxic
[50]
  half-life: 1.77 h
Mus musculus [51]
  Activity: Non-toxic
